{"source": "PubChem BioAssay (NCI)", "experiment_in_all_cases": "growth of human tumour cells (NCI), 48 h", "key": {"HL-60(TB) leukemia": {"test_system": "HL-60(TB) leukemia"}, "K-562 leukemia": {"test_system": "K-562 leukemia"}, "CCRF-CEM leukemia": {"test_system": "CCRF-CEM leukemia"}, "NCI-H226 lung": {"test_system": "NCI-H226 lung"}, "SK-MEL-28 melanoma": {"test_system": "SK-MEL-28 melanoma"}, "EKVX NSCLC": {"test_system": "EKVX NSCLC"}, "KM12 colon": {"test_system": "KM12 colon"}, "786-0 renal": {"test_system": "786-0 renal"}, "SR leukemia": {"test_system": "SR leukemia"}, "ACHN renal": {"test_system": "ACHN renal"}, "SNB-75 CNS": {"test_system": "SNB-75 CNS"}, "SW-620 colon": {"test_system": "SW-620 colon"}, "SF-295 CNS": {"test_system": "SF-295 CNS"}, "HCT-15 colon": {"test_system": "HCT-15 colon"}, "SF-268 CNS": {"test_system": "SF-268 CNS"}, "MDA-MB-435": {"test_system": "MDA-MB-435"}, "T-47D breast": {"test_system": "T-47D breast"}, "UO-31 renal": {"test_system": "UO-31 renal"}, "RPMI-8226 leukemia": {"test_system": "RPMI-8226 leukemia"}, "HCT-116 colon": {"test_system": "HCT-116 colon"}, "PC-3 prostate": {"test_system": "PC-3 prostate"}, "SK-MEL-2 melanoma": {"test_system": "SK-MEL-2 melanoma"}, "MALME-3M melanoma": {"test_system": "MALME-3M melanoma"}, "A498 renal": {"test_system": "A498 renal"}, "HCC-2998 colon": {"test_system": "HCC-2998 colon"}, "MDA-MB-231 breast": {"test_system": "MDA-MB-231 breast"}, "NCI-H460 lung": {"test_system": "NCI-H460 lung"}, "SK-MEL-5 melanoma": {"test_system": "SK-MEL-5 melanoma"}, "SF-539 CNS": {"test_system": "SF-539 CNS"}, "NCI-H522 lung": {"test_system": "NCI-H522 lung"}, "RXF 393 renal": {"test_system": "RXF 393 renal"}, "M14 melanoma": {"test_system": "M14 melanoma"}, "SNB-19 CNS": {"test_system": "SNB-19 CNS"}, "HT29 colon": {"test_system": "HT29 colon"}, "NCI-H23 lung": {"test_system": "NCI-H23 lung"}, "LOX IMVI melanoma": {"test_system": "LOX IMVI melanoma"}, "HOP-62 NSCLC": {"test_system": "HOP-62 NSCLC"}, "UACC-62 melanoma": {"test_system": "UACC-62 melanoma"}, "UACC-257 melanoma": {"test_system": "UACC-257 melanoma"}, "CAKI-1 renal": {"test_system": "CAKI-1 renal"}, "COLO 205 colon": {"test_system": "COLO 205 colon"}, "OVCAR-4 ovarian": {"test_system": "OVCAR-4 ovarian"}, "A549 NSCLC": {"test_system": "A549 NSCLC"}, "IGROV1 ovarian": {"test_system": "IGROV1 ovarian"}, "U251 CNS": {"test_system": "U251 CNS"}, "MCF7 breast": {"test_system": "MCF7 breast"}, "TK-10 renal": {"test_system": "TK-10 renal"}, "DU-145 prostate": {"test_system": "DU-145 prostate"}, "SN12C renal": {"test_system": "SN12C renal"}, "OVCAR-8 ovarian": {"test_system": "OVCAR-8 ovarian"}, "MOLT-4 leukemia": {"test_system": "MOLT-4 leukemia"}, "OVCAR-3 ovarian": {"test_system": "OVCAR-3 ovarian"}, "SK-OV-3 ovarian": {"test_system": "SK-OV-3 ovarian"}, "HS 578T breast": {"test_system": "HS 578T breast"}, "NCI/ADR-RES ovarian": {"test_system": "NCI/ADR-RES ovarian"}}, "note": "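Test compounds were applied to cells in 96-well plates for 48 hours at 5 doses. At the TGI there is no net growth.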", "data": [{"smiles": "COC(=O)C1=CC(NC(=O)OCc2ccccc2)C(C(=O)c2ccccc2)C[C@@H]1Sc1ccccc1", "note": "(stereo partly drawn)", "values": [{"measurement": "TGI", "setting": "HL-60(TB) leukemia", "result": 3.03, "unit": "µM"}, {"measurement": "TGI", "setting": "K-562 leukemia", "result": 7.72, "unit": "µM"}, {"measurement": "TGI", "setting": "CCRF-CEM leukemia", "result": 4.99, "unit": "µM"}]}, {"smiles": "NCCN1CC2CCC(CC2)C1", "values": [{"measurement": "TGI", "setting": "NCI-H226 lung", "result": "> 10", "unit": "µM"}, {"measurement": "TGI", "setting": "SK-MEL-28 melanoma", "result": "> 10", "unit": "µM"}, {"measurement": "TGI", "setting": "EKVX NSCLC", "result": "> 10", "unit": "µM"}, {"measurement": "TGI", "setting": "KM12 colon", "result": "> 10", "unit": "µM"}, {"measurement": "TGI", "setting": "786-0 renal", "result": "> 10", "unit": "µM"}, {"measurement": "TGI", "setting": "SR leukemia", "result": "> 10", "unit": "µM"}, {"measurement": "TGI", "setting": "ACHN renal", "result": "> 10", "unit": "µM"}, {"measurement": "TGI", "setting": "SNB-75 CNS", "result": "> 10", "unit": "µM"}, {"measurement": "TGI", "setting": "SW-620 colon", "result": "> 10", "unit": "µM"}, {"measurement": "TGI", "setting": "SF-295 CNS", "result": "> 10", "unit": "µM"}, {"measurement": "TGI", "setting": "HCT-15 colon", "result": "> 10", "unit": "µM"}, {"measurement": "TGI", "setting": "SF-268 CNS", "result": "> 10", "unit": "µM"}, {"measurement": "TGI", "setting": "MDA-MB-435", "result": "> 10", "unit": "µM"}, {"measurement": "TGI", "setting": "T-47D breast", "result": "> 10", "unit": "µM"}, {"measurement": "TGI", "setting": "UO-31 renal", "result": "> 10", "unit": "µM"}, {"measurement": "TGI", "setting": "RPMI-8226 leukemia", "result": "> 10", "unit": "µM"}, {"measurement": "TGI", "setting": "HCT-116 colon", "result": "> 10", "unit": "µM"}, {"measurement": "TGI", "setting": "PC-3 prostate", "result": "> 10", "unit": "µM"}, {"measurement": "TGI", "setting": "SK-MEL-2 melanoma", "result": "> 10", "unit": "µM"}, {"measurement": "TGI", "setting": "MALME-3M melanoma", "result": "> 10", "unit": "µM"}, {"measurement": "TGI", "setting": "A498 renal", "result": "> 10", "unit": "µM"}, {"measurement": "TGI", "setting": "HCC-2998 colon", "result": "> 10", "unit": "µM"}, {"measurement": "TGI", "setting": "MDA-MB-231 breast", "result": "> 10", "unit": "µM"}, {"measurement": "TGI", "setting": "NCI-H460 lung", "result": "> 10", "unit": "µM"}, {"measurement": "TGI", "setting": "SK-MEL-5 melanoma", "result": "> 10", "unit": "µM"}, {"measurement": "TGI", "setting": "SF-539 CNS", "result": "> 10", "unit": "µM"}, {"measurement": "TGI", "setting": "NCI-H522 lung", "result": "> 10", "unit": "µM"}, {"measurement": "TGI", "setting": "RXF 393 renal", "result": "> 10", "unit": "µM"}, {"measurement": "TGI", "setting": "M14 melanoma", "result": "> 10", "unit": "µM"}, {"measurement": "TGI", "setting": "SNB-19 CNS", "result": "> 10", "unit": "µM"}, {"measurement": "TGI", "setting": "HT29 colon", "result": "> 10", "unit": "µM"}, {"measurement": "TGI", "setting": "HL-60(TB) leukemia", "result": "> 10", "unit": "µM"}, {"measurement": "TGI", "setting": "NCI-H23 lung", "result": "> 10", "unit": "µM"}, {"measurement": "TGI", "setting": "LOX IMVI melanoma", "result": "> 10", "unit": "µM"}, {"measurement": "TGI", "setting": "HOP-62 NSCLC", "result": "> 10", "unit": "µM"}, {"measurement": "TGI", "setting": "UACC-62 melanoma", "result": "> 10", "unit": "µM"}, {"measurement": "TGI", "setting": "UACC-257 melanoma", "result": "> 10", "unit": "µM"}, {"measurement": "TGI", "setting": "K-562 leukemia", "result": "> 10", "unit": "µM"}, {"measurement": "TGI", "setting": "CCRF-CEM leukemia", "result": "> 10", "unit": "µM"}, {"measurement": "TGI", "setting": "CAKI-1 renal", "result": "> 10", "unit": "µM"}, {"measurement": "TGI", "setting": "COLO 205 colon", "result": "> 10", "unit": "µM"}, {"measurement": "TGI", "setting": "OVCAR-4 ovarian", "result": "> 10", "unit": "µM"}, {"measurement": "TGI", "setting": "A549 NSCLC", "result": "> 10", "unit": "µM"}, {"measurement": "TGI", "setting": "IGROV1 ovarian", "result": "> 10", "unit": "µM"}, {"measurement": "TGI", "setting": "U251 CNS", "result": "> 10", "unit": "µM"}, {"measurement": "TGI", "setting": "MCF7 breast", "result": "> 10", "unit": "µM"}, {"measurement": "TGI", "setting": "TK-10 renal", "result": "> 10", "unit": "µM"}, {"measurement": "TGI", "setting": "DU-145 prostate", "result": "> 10", "unit": "µM"}, {"measurement": "TGI", "setting": "SN12C renal", "result": "> 10", "unit": "µM"}, {"measurement": "TGI", "setting": "OVCAR-8 ovarian", "result": "> 10", "unit": "µM"}, {"measurement": "TGI", "setting": "MOLT-4 leukemia", "result": "> 10", "unit": "µM"}, {"measurement": "TGI", "setting": "OVCAR-3 ovarian", "result": "> 10", "unit": "µM"}, {"measurement": "TGI", "setting": "SK-OV-3 ovarian", "result": "> 10", "unit": "µM"}, {"measurement": "TGI", "setting": "HS 578T breast", "result": "> 10", "unit": "µM"}, {"measurement": "TGI", "setting": "NCI/ADR-RES ovarian", "result": "> 10", "unit": "µM"}]}]}
